Test results from patent US11197863B2, “Inhibitors of polo-like kinase 4 (PLK4) for treating pediatric embryonal tumors” (ANN AND ROBERT H. LURIE CHILDREN'S HOSPITAL OF CHICAGO, priority 2017, dated 2021).

How the values were obtained:
MON rhabdoid cells = test: Immunofluorescence for gamma-tubulin (centriole number); format: cell-based, human; conditions: 48 hours
Experimental: (§1) The cells were then blocked in blocking buffer (5% BSA (Jackson Immuno Research Laboratories Inc., USA) in PBST) for 1 hour at RT. The primary antibody ([…] 1:500, Sigma, USA) diluted in 1% BSA in PBST was then added and incubated at 4° C. overnight. Then, the cells were washed with 1×PBS thrice. Secondary antibody (Anti-Rabbit IgG (H+L) F (ab′) 2, 1:500, Sigma, USA) diluted in 1% BSA in PBST was added and incubated at RT for 2 hours. Three time washes with IX PBS were performed. Then, 1 mL of DAPI (Thermo Fisher Scientific, USA) in PBS (0.5 μl of DAPI in 10 ml PBS) was added to the cells and incubated for 10 min at RT. Finally, 3 time washes with 1×PBS were performed and slides were mounted using Mounting Medium (Thermo Fisher Scientific, USA).

[1] = system: G401, BT-12, BT-16, DAOY and D283 cell lines; test: as above; format: cell-based, human
Experimental: as §1

[2] = system: MON, G401, BT-12 and BT-16 cells; test: Apoptosis by flow cytometry (Annexin V / PI); format: cell-based, human; conditions: 100 nM, 48 hours vs 0.1% DMSO
Experimental: Cells were treated with various concentrations of […] and 0.1% DMSO (control) for evaluation of the impact of treatment on induction of apoptosis. Live cells were stained with Annexin V as an indicator of early apoptosis and Propidium Iodide (PI—Thermo Fisher Scientific, USA) for detection of late apoptosis and necrosis, according to manufacturer's instructions (Thermo Fisher Scientific, USA). Flow cytometric analysis was performed on a BD Fortessa instrument (BD Biosciences, USA) within an hour of staining. Data was analyzed using Modfit LT from Verity Software House. All experiments were performed in triplicates.

Aurora kinase B = Aurora kinase B (Homo sapiens, UniProt Q96GD4); conditions: cited from earlier work
MON cells = test: Invasion and migration assays (Transwell); format: cell-based, human; conditions: 100 nM, 24 hr
Experimental: (§2) Both migration and invasion were assessed using a 24-well Transwell chamber system (Corning, USA).[35] MON cells were plated at 20,000 per well for cell migration and at 50,000 per well coated with matrigel (200 μg/ml, 3 hr of solidification) for cell invasion. HFF-SCC058 cells were used as negative controls. […] All experiments were performed in triplicates.

DAOY MB cells = test: Confluency assay (IncuCyte ZOOM); format: cell-based, human; conditions: increasing concentrations, 48 hour period, p-value=0.029
Experimental: For further evaluation of the effect of the PLK4 inhibitor over tumor cell proliferation, confluency was measured over a 48 hour period. MON, BT-12, G401 and DAOY cells were plated in 96-well plates with a density of 6×10^4 per well. […] Confluency was monitored for 48 hours by taking phase contrast images every 2 hours and measured using an IncuCyte ZOOM system (Essen BioScience, USA). Experiments were performed in triplicates.

[3] = system: BT-12 AT/RT intracranial xenografts; test: Intracranial AT/RT xenograft tumors; format: in vivo, mice; conditions: 7.5 mg/kg/day oral for 21 days
From the text: Six-week-old female athymic mice (rnu/rnu genotype, BALB/c background) were purchased from Envigo (Harlan) and housed under aseptic conditions, which included filtered air and sterilized food, water, bedding, and cages. The Northwestern University Institutional Animal Care and Use Committee approved all animal protocols. The BT-12 AT/RT cell line, which has high expression of PLK4 was modified to express luciferase and injected intracranially in nude mice as previously described. Each mouse was injected with a cell suspension (10,000 cells/3 μL) into the right caudate putamen of the brain. […] Bioluminescence monitoring was performed twice a week throughout the course of the experiment for quantitative measurement of tumor growth and response to therapy. Kaplan-Meier survival analysis was performed to assess survival benefit within the treatment group as compared to controls. Differences between survival curves were calculated using a log-rank test. Brains were resected at 6 hours following completion of the treatment and placed in 4% paraformaldthyde for subsequent histological examination.

[4] = system: HFF-SCC058 human fibroblasts; test: Invasion and migration assays (Transwell); format: cell-based; conditions: 100 nM, 24 hr
Experimental: as §2

RT and MB cell lines [5] = test: Cell cycle analysis by flow cytometry (polyploidy); format: cell-based, human; conditions: multiple RT and MB cell lines
Experimental: Cell cycle evaluation was performed by staining the cells with PI (Thermo Fisher Scientific, USA) according to manufacturer's instructions. […] Data was analyzed using Modfit LT from Verity Software House. Experiments were performed in triplicates.

RT and MB cell lines [6] = test: Clonogenic recovery assay; format: cell-based, human; conditions: 100 nM for 6 days, then 12 days drug-free
Experimental: For each cell line, 200 cells were seeded into 6-well tissue culture plates. […] On the 7th day, cell were washed with IX PBS twice and then incubated with 0.1% DMSO for an additional 12 days. […] The number of colonies was counted. All experiments were performed in triplicates.

[7] = Brain to plasma ratio (B:P); format: in vivo; conditions: male, CD-1, mouse, brain and plasma, po, 7.5 mg/kg, fasted male CD-1 mice, 4 hours post-dose, average
Experimental: Raw brain-to-plasma ratios (B:P) were determined by dividing the brain concentration in ng/g by the plasma concentration in ng/g (with plasma, density assumed to be of 1 g/mL). The average B:P ratio was determined to be approximately 0.08±0.3 (FIG. 12). No further CFI-400945 pharmacokinetic studies were done as part of this study.
Male CD-1 mice weighing between 20 and 40 grams were fitted with jugular vein cannulas as appropriate and fasted overnight until 4 hours post-dose. Double route of administration (oral and IV) were tested, with a single dose concentration of 7.5 mg/kg. Plasma and brain were sampled at 6 time-points, starting at 30 minutes (n=3 animals/time-point). Brain was extracted at the same plasma sampling time-point from each animal. Both plasma and brain samples were deproteinated. Brain samples were weighted, homogenized and CFI-400945 was extracted. […] The dosing solution was normalized in a matched matrix (mouse plasm) and analyzed in triplicate in the same analytical batch as the incurred samples (Absorption Systems—Exton, Pa.).

[8] = system: MON, G401, BT-12, and BT-16 cells; test: Clonogenic assay, rhabdoid tumor cell lines; format: cell-based, human; conditions: 50-200 nM; analyzed 14 days after treatment
Experimental: For each cell line, 200 cells were seeded into six-well plates, incubated for 14 days, fixed with formalin, stained with Cresyl violet (ACROS Organics, USA), and the number of colonies counted using Image J software (www.imagej.nih.gov).
To evaluate the effect of the PLK4 mutation over cell survival, MON-PLK4-mutated cells were compared with MON-Cas9. […] Controls were treated with 0.1% DMSO. All experiments were performed in triplicates.

Chain of Aurora kinase B (Q96GD4 whole entry, species assumed): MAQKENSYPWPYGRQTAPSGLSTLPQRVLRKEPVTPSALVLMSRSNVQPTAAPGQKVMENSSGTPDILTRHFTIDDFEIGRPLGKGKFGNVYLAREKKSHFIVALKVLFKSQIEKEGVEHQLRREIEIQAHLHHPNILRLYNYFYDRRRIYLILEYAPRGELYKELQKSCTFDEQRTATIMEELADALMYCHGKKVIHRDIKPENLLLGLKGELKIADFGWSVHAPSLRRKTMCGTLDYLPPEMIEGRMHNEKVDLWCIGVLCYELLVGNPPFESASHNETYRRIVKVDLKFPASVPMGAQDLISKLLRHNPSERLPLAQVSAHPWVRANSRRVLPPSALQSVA

With `COc1ccc2c(c1)[C@]1(C[C@H]1c1ccc3c(/C=C/c4ccc(CN5C[C@@H](C)O[C@@H](C)C5)cc4)n[nH]c3c1)C(=O)N2` [CFI-400945] the centriole number (MON rhabdoid cells; 100 nM) was “slight increase in centrioles' number”, the centriole number (MON rhabdoid cells; 500 nM) was “significant depletion of centrioles” and the centriole number ([1]; 100 nM) was “increase in centriole's number”. For the same compound, the centriole number ([1]; 500 nM) was “significant decrease”, the “cells undergoing cell death (apoptosis)” value [2] was “significantly higher percentage of cells undergoing cell death” and the “activity against Aurora kinase B” value (Aurora kinase B) was “certain activity”. For the same compound, the invasion and migration (MON cells) was “significant reduction”, the “delay in reaching confluency (FC)” value (DAOY MB cells) was 1.70 and the “growth of intracranial AT/RT tumors (bioluminescence)” value ([3]; p=0.0146) was “significantly reduced the growth”. The survival ([3]; p=0.0477, log-rank) was “extended the survival”, the invasion and migration [4] was “no effects were observed” and the degree of polyploidy (RT and MB cell lines [5]) was over 8 N. For the same compound, the “ability to generate colonies after drug removal” value (RT and MB cell lines [6]) was “lost their ability to generate colonies”, the Kp at 4 h [7] was about 0.08 and the “colonies (clonogenic assay)” value [8] was “complete absence of colonies”.
